Measured values as given in US20150015931A1, “ELECTROWETTING FLUIDS” (Merck Patent GmbH, priority 2012, published 2015).

Tests used:
[1] = Absorbance of the saturated dye solution at 5 micron thickness (Beer-Lambert law, UV-vis); type: physicochemical; conditions: in decane; for Absorbance (theoretical), at 5 micron thickness: Table 8
Protocol: (§1) The absorbance is measured using a Hitachi UV3310 UV-vis spectrophotometer.

[2] = Solubility testing: saturation concentration of dye in non-polar solvent; conditions: for Saturation concentration (%): in decane
Protocol: A typical solubility test consists of one or more dyes dissolved in a suitable non-polar (hydrophobic) solvent, for example decane, at a concentration of 20% by weight for each dye. Samples are first vortex mixed for approximately 3 minutes and sonicated at 50° C. br 30 mins. They are then stirred for approximately 16 hours to ensure complete saturation. After stirring, samples are left to stand at room temperature for 2 hours before filtering through a 200 nm PTFE filter to give a saturated solution of dye in solvent.
The saturation concentrations and/or absorbance data for cells of varying thickness can be derived using the Beer-Lambert law:
Where A is absorbance (arbitrary unit) e=Molar extinction coefficient, c=Concentration (mol/l), l=path length (cm).
as §1

[3] = at the wavelength printed in the row, Table 6b
[4] = at the wavelength printed in the row, Table 5
[5] = at the wavelength printed in the row

CCCCCCCCN(CCCCCCCC)c1ccc(/N=N/c2cc(OCC(CC)CCCC)c(/N=N/c3ccc([N+](=O)[O-])cc3[N+](=O)[O-])cc2OCC(CC)CCCC)c(C)c1 (stereo not shown) [Dye 1a, 4-((E)-(4-((E)-(2,4-Dinitrophenyl)diazenyl)-2,5-bis(2-ethylhexyloxy)phenyl)diazenyl)-3-methyl-N,N-dioctylaniline]
Absorbance (theoretical), at 5 um thickness ([1]; at the wavelength printed in the row, Table 7): 0.188 | Saturation wt % in decane ([2]; Table 1 Blue/Black Dyes): 100 wt % | Saturation concentration (%) ([2]; Table 7): 1.000%

CCCCC(CC)COc1cc(/N=N/c2ccc([N+](=O)[O-])cc2[N+](=O)[O-])c(OCC(CC)CCCC)cc1/N=N/c1ccc(N(CC(CC)CCCC)CC(CC)CCCC)cc1C (stereo not shown) [Dye 1b, 4-((E)-(4-((E)-(2,4-Dinitrophenyl)diazenyl)-2,5-bis(2-ethylhexyloxy)phenyl)diazenyl)-3-methyl-N,N-di-(2-ethylhexyl)aniline]
Saturation wt % in decane ([2]; Table 1 Blue/Black Dyes): 17.19 wt %

CCCCC(CC)COc1cc(/N=N/c2ccc([N+](=O)[O-])cc2[N+](=O)[O-])c(OCC(CC)CCCC)cc1/N=N/c1ccc(N(CCC(C)CC(C)(C)C)CCC(C)CC(C)(C)C)cc1C (stereo not shown) [Dye 1c, 4-((E)-(4-((E)-(2,4-Dinitrophenyl)diazenyl)-2,5-bis(2-ethylhexyloxy)phenyl)diazenyl)-3-methyl-N,N-d i-(3,5,5-trimethylhexyl)aniline]
Saturation wt % in decane ([2]; Table 1 Blue/Black Dyes): 3.53 wt %

CCCCCCCCCCN(CCCCCCCCCC)c1ccc(/N=N/c2cc(OCC(CC)CCCC)c(/N=N/c3ccc([N+](=O)[O-])cc3[N+](=O)[O-])cc2OCC(CC)CCCC)c(C)c1 (stereo not shown) [Dye 1d, 4-((E)-(4-((E)-(2,4-Dinitrophenyl)diazenyl)-2,5-bis(2-ethylhexyloxy)phenyl)diazenyl)-3-methyl-N,N-di-n-decylaniline]
Saturation wt % in decane ([2]; Table 1 Blue/Black Dyes): 2.39 wt %

CCCCCCCCCCCCN(CCCCCCCCCCCC)c1ccc(/N=N/c2cc(OCC(CC)CCCC)c(/N=N/c3ccc([N+](=O)[O-])cc3[N+](=O)[O-])cc2OCC(CC)CCCC)c(C)c1 (stereo not shown) [Dye 1e, 4-((E)-(4-((E)-(2,4-Dinitrophenyl)diazenyl)-2,5-bis(2-ethylhexyloxy)phenyl)diazenyl)-3-methyl-N,N-di-n-dodecylaniline]
Saturation wt % in decane ([2]; Table 1 Blue/Black Dyes): 5.17 wt %

CCCCCCCCCCCCCCN(CCCCCCCCCCCCCC)c1ccc(/N=N/c2cc(OCC(CC)CCCC)c(/N=N/c3ccc([N+](=O)[O-])cc3[N+](=O)[O-])cc2OCC(CC)CCCC)c(C)c1 (stereo not shown) [Dye 1f, 4-((E)-(4-((E)-(2,4-Dinitrophenyl)diazenyl)-2,5-bis(2-ethylhexyloxy)phenyl)diazenyl)-3-methyl-N,N-di-n-tetradecylaniline]
Saturation wt % in decane ([2]; Table 1 Blue/Black Dyes): 15.2 wt %

CCCCCCCCCCCCN(CCC(C)CC(C)(C)C)c1ccc(/N=N/c2cc(OCC(CC)CCCC)c(/N=N/c3ccc([N+](=O)[O-])cc3[N+](=O)[O-])cc2OCC(CC)CCCC)c(C)c1 (stereo not shown) [Dye 1g, 4-((E)-(4-((E)-(2,4-Dinitrophenyl)diazenyl)-2,5-bis(2-ethylhexyloxy)phenyl)diazenyl)-3-methyl-N-dodecyl-N-(3,5,5-trimethylhexyl)aniline]
Saturation wt % in decane ([2]; Table 1 Blue/Black Dyes): 16.67 wt %

CCCCCCCCCCCCCCCCCCN(CCCCCCCCCCCCCCCCCC)c1cc(NC(C)=O)c(/N=N/c2c(C#N)cc([N+](=O)[O-])cc2C#N)cc1OC [Dye 8, N-(2-((2,6-Dicyano-4-nitrophenyl)diazenyl)-5-(dioctadecylamino)-4-methoxyphenyl)acetamide]
Dye saturation concentration % in Decane as solvent [2]: 0.003% | Dye saturation concentration % in (Decane/dye 2 as solvent) [2]: 0.18% | Dye saturation concentration % in (Decane/dye 12 as solvent) [2]: 0.18% | Saturation wt % in decane ([2]; Table 2 Cyan Dyes): 0.003 wt %

CCCCCCCCN(CCCCCCCC)c1ccc(/N=N/c2snc(C)c2C#N)c(NC(C)=O)c1 [Dye 11, N-(2-((4-Cyano-3-methylisothiazol-5-yl)diazenyl)-5-(dioctylamino)phenyl)acetamide]
Dye saturation concentration % in Decane as solvent [2]: 0.19% | Dye saturation concentration % in (Decane/dye 2 as solvent) [2]: 0.62% | Dye saturation concentration % in (Decane/dye 12 as solvent) [2]: 0.41% | Saturation wt % in decane ([2]; Table 3 Magenta Dyes): 0.19 wt %

CCCCCCCCCCCCCCc1ccc(/N=N/c2c(C)c(C#N)c(=O)n(CC(CC)CCCC)c2O)cc1 (stereo not shown) [Dye 12, (E)-1-(2-Ethylhexyl)-6-hydroxy-4-methyl-2-oxo-5-((4-tetradecylphenyl)diazenyl)-1,2-dihydropyridine-3-carbonitrile]
Absorbance at wavelength, at 5 micron thickness [1, 3]: 0.332 | Saturation wt % in decane ([2]; Table 4 Yellow Dyes): 1.03 wt % | Saturation concentration (%) ([2]; Table 6b): 1.03%

CCCCCCCCCCCCCCc1ccc(/N=N/c2c(C)cc(=O)n(CC(CC)CCCC)c2O)cc1 (stereo not shown) [Dye 13, (E)-1-(2-ethylhexyl)-6-hydroxy-4-methyl-5-((4-tetradecylphenyl)diazenyl)pyridin-2(1H)-one]
Absorbance at wavelength, at 5 micron thickness [1, 3]: 0.915 | Saturation wt % in decane ([2]; Table 4 Yellow Dyes): 3.72 wt % | Saturation concentration (%) ([2]; Table 6b): 3.72%

CCCCc1ccc(/N=N/c2ccc(N(CCCC)CCCC)cc2)cc1 [Dye 14]
Saturation wt % in decane ([2]; Table 4 Yellow Dyes): 9.95 wt %

CCCCCCCCN(CCCCCCCC)c1ccc(/N=N/c2ccc([N+](=O)[O-])cc2)c(C)c1 [Dye 15, (E)-3-Methyl-4-((4-nitrophenyl)diazenyl)-N,N-dioctylaniline]
Absorbance at wavelength, at 5 micron thickness [1, 4]: 2.765 | Saturation wt % in decane ([2]; Table 4 Yellow Dyes): 10.50 wt % | Saturation concentration (%) ([2]; Table 5): 8.58%

CCCCCNc1ccc(NCCCCC)c2c1C(=O)c1ccccc1C2=O [Oil Blue N, reference compound]
Absorbance at wavelength, at 5 micron thickness ([1]; 646 nm, Table 6a): 0.0938 | Absorbance at wavelength, at 5 micron thickness [1, 4]: 0.114 | Absorbance (theoretical), at 5 micron thickness [1, 5]: 0.0938 | Dye saturation concentration % in Decane as solvent [2]: 0.62% | Dye saturation concentration % in (Decane/dye 2 as solvent) [2]: 1.34% | Dye saturation concentration % in (Decane/dye 12 as solvent) [2]: 1.14% | Saturation concentration (%) ([2]; Table 5): 0.657% | Saturation concentration (%) ([2]; Table 6a): 0.657% | Saturation concentration (%) ([2]; Table 8): 0.66%

Cc1ccc(C)c(N=Nc2cc(C)c(N=Nc3c(O)ccc4ccccc34)cc2C)c1 [Oil Red O, reference compound]
Absorbance at wavelength, at 5 micron thickness [1, 4]: 0.2594 | Dye saturation concentration % in Decane as solvent [2]: 1.17% | Dye saturation concentration % in (Decane/dye 2 as solvent) [2]: 1.91% | Dye saturation concentration % in (Decane/dye 12 as solvent) [2]: 1.49% | Saturation concentration (%) ([2]; Table 5): 1.615%

CCCCNc1ccc(NCCCC)c2c1C(=O)c1ccccc1C2=O [Solvent Blue 35, reference compound]
Absorbance at wavelength, at 5 micron thickness ([1]; 646 nm, Table 6a): 0.0531 | Absorbance at wavelength, at 5 micron thickness [1, 4]: 0.044 | Absorbance (theoretical), at 5 micron thickness [1, 5]: 0.0531 | Dye saturation concentration % in Decane as solvent [2]: 0.33% | Dye saturation concentration % in (Decane/dye 2 as solvent) [2]: 0.69% | Dye saturation concentration % in (Decane/dye 12 as solvent) [2]: 0.62% | Saturation concentration (%) ([2]; Table 5): 0.385% | Saturation concentration (%) ([2]; Table 6a): 0.385% | Saturation concentration (%) ([2]; Table 8): 0.385%

Cc1ccccc1/N=N/c1ccc(/N=N/c2c(O)ccc3ccccc23)c(C)c1 [Solvent Red 24, reference compound]
Absorbance at wavelength, at 5 micron thickness [1, 4]: 0.1579 | Saturation concentration (%) ([2]; Table 5): 0.6%
